pKi: −log10 of the molar value.
Biological target: Recombinant Human Enteropeptidase (Homo sapiens (Human), UniProt P98073)
Test: Enteropeptidase Inhibition Assay
Type: biochemical
Conditions: substrate Acetyl-Asp-Asp-Asp-Asp-Lys-AFC 30 μM, 30° C., 1 hour; Ki calculated from IC50 using Cheng-Prusoff equation
Procedure: Enteropeptidase Inhibition Assay
The inhibitory activity of the enteropeptidase inhibitor synthesized using the purified Recombinant Human Enteropeptidase and the substrate Acetyl-Asp-Asp-Asp-Asp-Lys-AFC (BioVision) was measured. 7.2 ng/mL of Enteropeptidase diluted with a buffer (20 mM Tris, 50 mM NaCl, pH 7.5) in a 96 well plate (Costar), 30 μM of Acetyl-Asp-Asp-Asp-Asp-Lys-AFC, several concentrations of Enteropeptidase inhibitors (1% DMSO concentration) were dispensed such that a final volume was 100 μL, and then the enzyme reaction was carried out at 30° C. for 1 hour. At this time, 1% DMSO, a substrate and Enteropeptidase instead of the compound were dispensed onto positive control wells, and 1% DMSO and a substrate were dispensed onto negative control wells. The enzyme reaction was […] using an excitation wavelength of 380 nm and an emission wavelength of 500 nm in a fluorescence spectrometer, and then the rate of increase in fluorescence (milli-units per min) between 20 and 60 minutes was measured.
The fluorescence measurement values reduced by the inhibitor diluted at each concentration were converted into relative values % of the positive control group (100% reactivity) and the negative control group (0% reactivity), and used to calculate IC50 values. IC50 is the concentration of the inhibitor that inhibits the enzyme activity by 50%, and was calculated using PRISM (GraphPad). Ki values were calculated from the IC50 values using Cheng-Prusoff equation.

Chain of Recombinant Human Enteropeptidase (P98073 whole entry): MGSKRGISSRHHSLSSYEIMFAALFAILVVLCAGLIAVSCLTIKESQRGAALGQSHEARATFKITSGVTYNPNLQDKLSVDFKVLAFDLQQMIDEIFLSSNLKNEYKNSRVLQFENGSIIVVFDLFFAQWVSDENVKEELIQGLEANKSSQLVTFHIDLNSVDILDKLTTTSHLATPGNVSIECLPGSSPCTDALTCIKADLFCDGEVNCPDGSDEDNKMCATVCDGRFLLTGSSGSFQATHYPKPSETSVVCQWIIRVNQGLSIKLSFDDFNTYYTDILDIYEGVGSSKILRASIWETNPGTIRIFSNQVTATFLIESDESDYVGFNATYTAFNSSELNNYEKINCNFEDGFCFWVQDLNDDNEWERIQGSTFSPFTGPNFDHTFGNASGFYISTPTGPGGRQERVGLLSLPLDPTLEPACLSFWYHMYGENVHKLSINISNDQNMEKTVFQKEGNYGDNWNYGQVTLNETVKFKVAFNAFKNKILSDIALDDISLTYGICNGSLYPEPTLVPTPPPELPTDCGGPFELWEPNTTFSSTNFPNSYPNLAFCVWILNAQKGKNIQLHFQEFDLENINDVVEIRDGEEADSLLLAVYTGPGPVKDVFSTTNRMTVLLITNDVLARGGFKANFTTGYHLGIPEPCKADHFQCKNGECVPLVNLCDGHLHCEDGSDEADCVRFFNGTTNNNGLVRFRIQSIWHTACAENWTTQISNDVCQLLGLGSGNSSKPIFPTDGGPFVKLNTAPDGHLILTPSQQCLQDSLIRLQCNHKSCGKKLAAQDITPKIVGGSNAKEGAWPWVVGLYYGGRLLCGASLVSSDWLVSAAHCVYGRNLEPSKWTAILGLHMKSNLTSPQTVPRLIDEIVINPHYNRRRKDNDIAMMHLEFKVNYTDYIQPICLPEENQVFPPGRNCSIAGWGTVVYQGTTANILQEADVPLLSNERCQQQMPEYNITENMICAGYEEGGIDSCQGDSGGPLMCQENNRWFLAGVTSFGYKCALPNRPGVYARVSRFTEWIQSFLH

SMILES | pKi
COC(=O)CNC(=O)C1CCN(c2ncc(C(=O)Oc3ccc(C(=N)N)cc3)s2)CC1 [Example 29, 4-Carbamimidoylphenyl 2-(4-((2-methoxy-2-oxoethyl)carbamoyl)piperidin-1-yl)thiazole-5-carboxylate] | 7.74
COC(=O)CCCN(C)C(=O)C1CCN(c2ncc(C(=O)Oc3ccc(C(=N)N)cc3)s2)CC1 [Example 31, 4-Carbamimidoylphenyl 2-(4-((4-methoxy-4-oxobutyl)(methyl)carbamoyl)piperidin-1-yl)thiazole-5-carboxylate] | 7.77
CN(CCCC(=O)O)C(=O)C1CCN(c2ncc(C(=O)Oc3ccc(C(=N)N)cc3)s2)CC1 [Example 35] | 8.01
CC(C)(CNC(=O)C1CCN(c2ncc(C(=O)Oc3ccc(C(=N)N)cc3)s2)CC1)C(=O)O [Example 36] | 8.01
COC(=O)CNC(=O)C1CCN(c2ncc(C(=O)Oc3ccc(C(=N)N)cc3F)s2)CC1 [Example 37, 4-Carbamimidoyl-2-fluorophenyl 2-(4-((2-methoxy-2-oxoethyl)carbamoyl)piperidin-1-yl)thiazole-5-carboxylate] | 8.74
COC(=O)CCNC(=O)C1CCN(c2ncc(C(=O)Oc3ccc(C(=N)N)cc3F)s2)CC1 [Example 38, 4-Carbamimidoyl-2-fluorophenyl 2-(4-((3-methoxy-3-oxopropyl)carbamoyl)piperidin-1-yl)thiazole-5-carboxylate] | 8.59
COC(=O)C(C)(C)CNC(=O)C1CCN(c2ncc(C(=O)Oc3ccc(C(=N)N)cc3F)s2)CC1 [Example 39, 4-Carbamimidoyl-2-fluorophenyl 2-(4-((3-methoxy-2,2-dimethyl-3-oxopropyl)carbamoyl)piperidin-1-yl)thiazole-5-carboxylate] | 8.60
COc1ccc(NC(=O)C2CCN(c3ncc(C(=O)Oc4ccc(C(=N)N)cc4)s3)CC2)cc1 [Example 40, 4-carbamimidoylphenyl 2-(4-((4-methoxyphenyl)carbamoyl)piperidin-1-yl)thiazole-5-carboxylate] | 8.01
COC(=O)CCCN(C)C(=O)C1CCN(c2ncc(C(=O)Oc3ccc(C(=N)N)cc3F)s2)CC1 [Example 41, 4-Carbamimidoyl-2-fluorophenyl 2-(4-((4-methoxy-4-oxobutyl)(methyl)carbamoyl)piperidin-1-yl)thiazole-5-carboxylate] | 8.74
N=C(N)c1ccc(OC(=O)c2cnc(N3CCC(C(=O)NCC(=O)O)CC3)s2)c(F)c1 [Example 42, (1-(5-((4-Carbamimidoyl-2-fluorophenoxy)carbonyl)thiazol-2-yl)piperidine-4-carbonyl)glycine] | 9.00
N=C(N)c1ccc(OC(=O)c2cnc(N3CCC(C(=O)NCCC(=O)O)CC3)s2)c(F)c1 [Example 43, 3-(1-(5-((4-Carbamimidoyl-2-fluorophenoxy)carbonyl)thiazol-2-yl)piperidine-4-carboxamido)propanoic Acid] | 8.77
CC(C)(CNC(=O)C1CCN(c2ncc(C(=O)Oc3ccc(C(=N)N)cc3F)s2)CC1)C(=O)O [Example 45, 3-(1-(5-((4-Carbamimidoyl-2-fluorophenoxy)carbonyl)thiazol-2-yl)piperidine-4-carboxamido)-2,2-dimethylpropanoic Acid] | 8.82
CCN(CCC(=O)N[C@@H](CC(=O)O)C(=O)O)c1ncc(C(=O)Oc2ccc(C(=N)N)cc2F)s1 [Example 47, (3-((5-((4-Carbamimidoyl-2-fluorophenoxy)carbonyl)thiazol-2-yl)(ethyl)amino)propanoyl)-L-aspartic Acid] | 9.28
CCN(CCC(=O)N[C@H](CCC(=O)OC(C)(C)C)C(=O)OC(C)(C)C)c1ncc(C(=O)Oc2ccc(C(=N)N)cc2F)s1 [Example 48] | 7.43
CCN(CCC(=O)N[C@H](CCC(=O)O)C(=O)O)c1ncc(C(=O)Oc2ccc(C(=N)N)cc2F)s1 [Example 49, (3-((5-((4-Carbamimidoyl-2-fluorophenoxy)carbonyl)thiazol-2-yl)(ethyl)amino)propanoyl)-D-glutamic Acid] | 9.24
CCN(CCC(=O)Nc1ccc(C(=O)OC(C)(C)C)cc1)c1ncc(C(=O)Oc2ccc(C(=N)N)cc2F)s1 [Example 52, 4-Carbamimidoyl-2-fluorophenyl 2-((3-((4-(tert-butoxycarbonyl)phenyl)amino)-3-oxopropyl)(ethyl)amino)thiazole-5-carboxylate] | 7.09
CCN(CCC(=O)Nc1cccc(C(=O)OC(C)(C)C)c1)c1ncc(C(=O)Oc2ccc(C(=N)N)cc2F)s1 [Example 53] | 7.92
CCN(CCC(=O)Nc1ccc(C(=O)O)cc1)c1ncc(C(=O)Oc2ccc(C(=N)N)cc2F)s1 [Example 55, 4-(3-((5-((4-Carbamimidoyl-2-fluorophenoxy)carbonyl)thiazol-2-yl)(ethyl)amino)propanamido)benzoic Acid] | 8.09
CC(C)(CNc1nc2ccc(C(=O)Oc3ccc(C(=N)N)cc3F)cc2s1)C(=O)O [Example 56, 3-((6-((4-Carbamimidoyl-2-fluorophenoxy)carbonyl)benzo[d]thiazol-2-yl)amino)-2,2-dimethylpropanoic Acid] | 9.23

More lines, in order of rising pKi, values ahead:

pKi | SMILES
7.40 | CCN(CCC(=O)N[C@@H](CC(=O)OC(C)(C)C)C(=O)OC(C)(C)C)c1ncc(C(=O)Oc2ccc(C(=N)N)cc2F)s1 [Example 46, Di-tert-butyl(3-((5-((4-carbamimidoyl-2-fluorophenoxy)carbonyl)thiazol-2-yl)(ethyl)amino)propanoyl)-L-aspartate]
7.74 | COC(=O)CCNC(=O)C1CCN(c2ncc(C(=O)Oc3ccc(C(=N)N)cc3)s2)CC1 [Example 30, 4-Carbamimidoylphenyl 2-(4-((3-methoxy-3-oxopropyl)carbamoyl)piperidin-1-yl)thiazole-5-carboxylate]
7.74 | COC(=O)C(C)(C)CNC(=O)C1CCN(c2ncc(C(=O)Oc3ccc(C(=N)N)cc3)s2)CC1 [Example 32, 4-Carbamimidoylphenyl 2-(4-((3-methoxy-2,2-dimethyl-3-oxopropyl)carbamoyl)piperidin-1-yl)thiazole-5-carboxylate]
7.85 | CCN(CCC(=O)Nc1ccc(C(=O)OC)cc1)c1ncc(C(=O)Oc2ccc(C(=N)N)cc2F)s1 [Example 50, 4-Carbamimidoyl-2-fluorophenyl 2-(ethyl(3-((4-(methoxycarbonyl)phenyl)amino)-3-oxopropyl)amino)thiazole-5-carboxylate]
7.89 | COC(=O)C1CCN(c2nc3ccc(C(=O)Oc4ccc(C(=N)N)cc4)cc3s2)CC1 [Example 57, 4-Carbamimidoylphenyl 2-(4-(methoxycarbonyl)piperidin-1-yl)benzo[d]thiazole-6-carboxylate]
7.92 | N=C(N)c1ccc(OC(=O)c2cnc(N3CCC(C(=O)Nc4ccccc4)CC3)s2)cc1 [Example 27, 4-Carbamimidoylphenyl 2-(4-(phenylcarbamoyl)piperidin-1-yl)thiazole-5-carboxylate]
8.01 | CCN(CCC(=O)Nc1cccc(C(=O)OC)c1)c1ncc(C(=O)Oc2ccc(C(=N)N)cc2F)s1 [Example 51, 4-Carbamimidoyl-2-fluorophenyl 2-(ethyl(3-((3-(methoxycarbonyl)phenyl)amino)-3-oxopropyl)amino)thiazole-5-carboxylate]
8.05 | COC(=O)C(C)(C)CNc1ncc(C(=O)Oc2ccc(C(=N)N)cc2)s1 [Example 24, 4-Carbamimidoylphenyl 2-((3-methoxy-2,2-dimethyl-3-oxopropyl)amino)thiazole-5-carboxylate]
8.05 | N=C(N)c1ccc(OC(=O)c2cnc(N3CCC(C(=O)NCCC(=O)O)CC3)s2)cc1 [Example 34]
8.09 | N=C(N)c1ccc(OC(=O)c2cnc(N3CCC(C(=O)NCC(=O)O)CC3)s2)cc1 [Example 33]
8.19 | N=C(N)c1ccc(OC(=O)c2cnc(N3CCC(NC(=O)c4ccccc4)CC3)s2)cc1 [Example 28, 4-Carbamimidoylphenyl 2-(4-benzamidopiperidin-1-yl)thiazole-5-carboxylate]
8.33 | N=C(N)c1ccc(OC(=O)c2cnc(N3CCC(C(=O)N[C@@H](CC(=O)O)C(=O)O)CC3)s2)cc1 [Example 25]
8.52 | COC(=O)CCCN(C)c1ncc(C(=O)Oc2ccc(C(=N)N)cc2F)s1 [Example 21, 4-Carbamimidoyl-2-fluorophenyl 2-((4-methoxy-4-oxobutyl)(methyl)amino)thiazole-5-carboxylate]
8.60 | CCN(CCC(=O)Nc1cccc(C(=O)O)c1)c1ncc(C(=O)Oc2ccc(C(=N)N)cc2F)s1 [Example 54, 3-(3-((5-((4-Carbamimidoyl-2-fluorophenoxy)carbonyl)thiazol-2-yl)(ethyl)amino)propanamido)benzoic Acid]
8.80 | CN(CCCC(=O)O)C(=O)C1CCN(c2ncc(C(=O)Oc3ccc(C(=N)N)cc3F)s2)CC1 [Example 44, 4-(1-(5-((4-carbamimidoyl-2-fluorophenoxy)carbonyl)thiazol-2-yl)-N-methylpiperidine-4-carboxamido)butanoic Acid]
9.24 | CN(CCCC(=O)O)c1ncc(C(=O)Oc2ccc(C(=N)N)cc2F)s1 [Example 22, 4-((5-((4-Carbamimidoyl-2-fluorophenoxy)carbonyl)thiazol-2-yl)(methyl)amino)butanoic Acid]
